{"source": "patent US11969440B2", "about": "“Metal (hydr)oxide composite comprising poorly soluble drug, method for manufacturing same, and pharmaceutical composition comprising same” (priority 2020, dated 2024)", "key": {"[1]": {"conditions": "cited from earlier work"}, "[2]": {"conditions": "single oral 40 mg/kg, MgO:HPMC compositions of Comparative Examples 2 to 4, FIG. 41 to 43"}}, "data": [{"smiles": "O=c1[nH]cc(F)c(=O)[nH]1", "note": "[Example 5-FU, 5-FU]", "values": [{"measurement": "solubility in water", "setting": "[1]", "value": 12.2, "unit": "mg/mL"}, {"measurement": "bioavailability of the compound as MgO composite versus the compound alone", "setting": "[2]", "value": "not improved"}]}]}
